Results as given in ChEMBL document CHEMBL4610104, “Dipleosporalones A and B, Dimeric Azaphilones from a Marine-Derived Pleosporales sp. Fungus” (J Nat Prod, 2020).

Columns and labels:
MDA-MB-231 [1] = test: Cytotoxicity against human MDA-MB-231 cells by MTT assay; type: functional, cell-based
HeLa [2] = test: Cytotoxicity against human HeLa cells by MTT assay; type: functional, cell-based
MGC-803 [3] = test: Cytotoxicity against human MGC803 cells by MTT assay; type: functional, cell-based
MCF7 [4] = test: Cytotoxicity against human MCF7 cells by MTT assay; type: functional, cell-based
A549 [5] = test: Cytotoxicity against human A549 cells by MTT assay; type: functional, cell-based
MDA-MB-231 [6] = test: Potency index, ratio of pinophilin-B IC50 to test compound IC50 against human MDA-MB-231 cells; type: functional
HeLa [7] = test: Potency index, ratio of pinophilin-B IC50 to test compound IC50 against human HeLa cells; type: functional
MGC-803 [8] = test: Potency index, ratio of pinophilin-B IC50 to test compound IC50 against human MGC803 cells; type: functional
MCF7 [9] = test: Potency index, ratio of pinophilin-B IC50 to test compound IC50 against human MCF7 cells; type: functional
A549 [10] = test: Potency index, ratio of pinophilin-B IC50 to test compound IC50 against human A549 cells; type: functional

SMILES	IC50 (MDA-MB-231 [1]) [µM]	IC50 (HeLa [2]) [µM]	IC50 (MGC-803 [3]) [µM]	IC50 (MCF7 [4]) [µM]	IC50 (A549 [5]) [µM]	Ratio IC50 (MDA-MB-231 [6])	Ratio IC50 (HeLa [7])	Ratio IC50 (MGC-803 [8])	Ratio IC50 (MCF7 [9])	Ratio IC50 (A549 [10])
Cc1cc(O)cc(O)c1C(=O)O[C@H]1[C@@H]2COC([C@H]3[C@H](CO)[C@H]4C(=O)[C@@](C)(O)[C@@H](OC(=O)c5c(C)cc(O)cc5O)[C@@H]5COC(/C=C/CO)=C[C@]453)=CC2=CC(=O)[C@@]1(C)O	1.9	2.5	1.3	2.1	1	30 - 90	30 - 90	30 - 90	30 - 90	30 - 90
Cc1cc(O)cc(O)c1C(=O)O[C@H]1[C@@H]2COC([C@H]3[C@H](CO)[C@@H](CO)[C@@H]3C3=CC4=CC(=O)[C@@](C)(O)[C@@H](OC(=O)c5c(C)cc(O)cc5O)[C@@H]4CO3)=CC2=CC(=O)[C@@]1(C)O	3.8	3	2	> 10	3.5	30 - 90	30 - 90	30 - 90	30 - 90	30 - 90
Cc1cc(O)cc(O)c1C(=O)O[C@H]1[C@@H]2COC(/C=C/CO)=CC2=CC(=O)[C@@]1(C)O [PINOPHILIN B]	97	78	84	95	89	–	–	–	–	–
